According to patent US11504386B2, “Preparation method for various novel fucosyl oligosaccharides and use thereof” (Korea University Research and Business Foundation, priority 2017, dated 2022):

What was measured:
[1] = system: Salmonella enterica serovar typhimurium; experiment: Capability of pathogenic microorganism to ferment FGal (Salmonella); type: cell-based; details: medium with 3 g/L purified FGal, 37° C., FIG. 9
From the text: (§1) To verify the prebiotic effect of FGal, the cell growth of strains such as Bifidobacterium longum subsp. infantis ATCC 15697 and Bifidobacterium bifidum DSM 20082 was monitored. In addition, to conduct a test for the capabilities of pathogenic microorganisms to ferment FGal, the cell growth of strains such as E. coli O1:K1:H7 and Salmonella enterica serovar typhimurium was monitored. At this time, the medium contained 10 g/L of BactoPeptone, 5 g/L of yeast extract, 2 g/L of K2HPO4 (anhydrous), 5 g/L of Na acetate (anhydrous), 2 g/L of NH4 citrate tribasic, 0.2 g/L of Mg sulfate heptahydrate, 0.05 g/L of Mn sulfate, 1 mL/L of Tween 80 (polysorbate 80), 0.5 g/L of cysteine, and 3 g/L of purified FGal, and the strains were cultured at 37° C.

E. coli O1:K1:H7 = experiment: Capability of pathogenic microorganism to ferment FGal (E. coli); type: cell-based; details: medium with 3 g/L purified FGal, 37° C., FIG. 9
From the text: as §1

hippocampal neurons = hippocampal neurons (brain neural cells) treated with FGal; stated as known; cited from earlier work
[2] = system: Bifidobacterium longum subsp. infantis ATCC 15697; experiment: Prebiotic effect: cell growth and metabolism of FGal by Bifidobacterium longum subsp. infantis; type: cell-based; details: medium with 3 g/L purified FGal, 37° C., FIG. 8
From the text: as §1

[3] = system: Bifidobacterium bifidum DSM 20082; experiment: Prebiotic effect: cell growth and metabolism of FGal by Bifidobacterium bifidum; type: cell-based; details: medium with 3 g/L purified FGal, 37° C., FIG. 8
From the text: as §1

C[C@@H]1O[C@@H](O[C@H]2C(O)O[C@H](CO)[C@H](O)[C@@H]2O)[C@@H](O)[C@H](O)[C@@H]1O (stereo partly shown) [FGal, 2′-fucosylgalactose]
metabolism of FGal by pathogenic microorganism [1]: unable to metabolize | metabolism of FGal by pathogenic microorganism (E. coli O1:K1:H7): unable to metabolize | growth of nerve cells (hippocampal neurons): promotes the growth of nerve cells | metabolism (fermentation) of FGal by the strain [2]: decomposed FGal into galactose and fucose through intracellular fucosidase and used both | metabolism (fermentation) of FGal by the strain ([2]; listed as 2-fucosylgalactose): decomposes 2-fucosylgalactose into galactose and fucose through intracellular fucosidase and uses both | metabolism (fermentation) of FGal by the strain [3]: first decomposed FGal into fucose and galactose extracellularly, and then metabolized a small amount of galactose | metabolism (fermentation) of FGal by the strain ([3]; listed as 2-fucosylgalactose): extracellularly decomposes 2-fucosylgalactose into galactose and fucose, and then uses only galactose
